Measured values as given in PMC8072159, “5-Bis-(2,6-difluoro-benzylidene) Cyclopentanone Acts as a Selective 11β-Hydroxysteroid Dehydrogenase one Inhibitor to Treat Diet-Induced Nonalcoholic Fatty Liver Disease in Mice” (Frontiers in Pharmacology, 2021).

How the values were obtained:
[1] = molecular target: T1, 11β-HSD1 (Mus musculus, UniProt P50172); experiment: 11β-HSD1 reductive activity in mouse liver microsomes; type: biochemical
T1 construct: from tissue; host or cells: mouse liver microsomes prepared in house (probably from Kunming mice)
T1 sequence (P50172 whole entry): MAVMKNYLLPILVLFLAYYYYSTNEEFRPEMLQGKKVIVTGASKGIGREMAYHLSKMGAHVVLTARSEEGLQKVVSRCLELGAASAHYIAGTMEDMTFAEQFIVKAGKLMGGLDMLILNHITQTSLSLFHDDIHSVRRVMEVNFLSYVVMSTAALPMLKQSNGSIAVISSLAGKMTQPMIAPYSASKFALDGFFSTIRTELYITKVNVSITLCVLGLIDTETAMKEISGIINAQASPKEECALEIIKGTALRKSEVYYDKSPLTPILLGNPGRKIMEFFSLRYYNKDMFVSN
Method: Preparation of Rat and Mouse Liver and Kidney Microsomes
The liver and kidney microsomes were prepared as previously described ([Guo et al., 2012]). Briefly, the tissue was homogenized in […] phosphate buffered saline (PBS) containing 0.25 M sucrose, and the nuclei and large cell debris were removed by centrifugation at 1500 g for 10 min. The supernatant was transferred to a tube and the mitochondria were removed by centrifugation at 10, 000 × g for 30 min. The supernatant was transferred to an ultracentrifuge tube and centrifuged twice at 105,000 × g, the resulting microsomal precipitate was collected. The protein content was measured by the BCA kit according to the manufacturer’s instruction. The protein concentration was adjusted to 20 mg/ml. These proteins were used to measure 11β-HSD1 and 11β-HSD2 activities. […]
The reductive activity of 11β-HSD1 in rat, mouse, and human liver microsomes was measured as previously described ([Ge et al., 2005]). […] 11β-HSD1 activity was measured using 11-DHC or cortisone as a substrate. […] The inhibitory ability of the chemical relative to the control (DMSO solvent) was measured. […] The steroids in chloroform and methanol (90:10, v/v) were chromatographically separated on a thin layer plate, and radioactivity was measured using a scanning radiometer (System AR2000, Bioscan Inc., Washington, DC, United States). […]

[2] = molecular target: T2, 11β-HSD1 (Rattus norvegicus, UniProt P16232); experiment: 11β-HSD1 activity in intact rat Leydig cells; type: cell-based; conditions: read-out: IC50 rat Leydig cell 11β-HSD1
T2 construct: from tissue; host or cells: liver microsomes of male Sprague Dawley rats, prepared in house
T2 sequence (P16232 whole entry): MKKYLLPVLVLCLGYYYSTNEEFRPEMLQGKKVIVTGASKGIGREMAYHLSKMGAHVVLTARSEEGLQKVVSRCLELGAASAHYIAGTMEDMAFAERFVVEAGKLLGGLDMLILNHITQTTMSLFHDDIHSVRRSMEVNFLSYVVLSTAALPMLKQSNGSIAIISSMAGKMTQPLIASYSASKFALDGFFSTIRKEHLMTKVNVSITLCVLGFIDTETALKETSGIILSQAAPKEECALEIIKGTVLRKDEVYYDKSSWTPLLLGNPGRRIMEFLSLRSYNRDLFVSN
Method: Isolation of Rat Adult Leydig Cells
Leydig cells were isolated as previously described ([Ge et al., 2006]). Briefly, after a week of adjustment, eighteen 35-day-old Sprague Dawley rats were killed by asphyxiation with carbon dioxide (CO2). The testis was removed. The testis was perfused with collagenase solution through the testicular artery. The testis was digested with collagenase and DNase for 15 min, and the digested cells were filtered with nylon mesh, and the cells were separated under a Percoll gradient. The cells with density of 1.070–1.088 g/ml were collected and washed. The purity of the Leydig cell fraction was evaluated by histochemical staining of 3β-hydroxysteroid dehydrogenase using 0.4 mM etiocholanolone as a steroid substrate and 2 mM NAD + as a cofactor and tetranitroblue tetrazolium as the H^+ acceptor as previously described ([Payne et al., 1980]). More than 95% of Leydig cells are strongly stained. […] In brief, an aliquot of 10^5 cells/ml in a 0.5 ml test tube was mixed with 0.1 ml of 0.4% trypan blue at room temperature for 5 min and the cells were then loaded into a hemocytometer for counting, and the numbers of non-viable (staining) and viable (not stained) cells were counted. Viability was calculated as the percentage of viable cells divided by the total number of cells, and the viability of Leydig cells (intact Leydig cells) was over 99%. […]

[3] = molecular target: T3, 11β-HSD1 (Homo sapiens, UniProt P28845); experiment: 11β-HSD1 reductive activity in human liver microsomes; type: biochemical
T3 construct: purchased Gentest (Woburn, MA); host or cells: human liver microsomes (tissue)
T3 sequence (P28845 whole entry): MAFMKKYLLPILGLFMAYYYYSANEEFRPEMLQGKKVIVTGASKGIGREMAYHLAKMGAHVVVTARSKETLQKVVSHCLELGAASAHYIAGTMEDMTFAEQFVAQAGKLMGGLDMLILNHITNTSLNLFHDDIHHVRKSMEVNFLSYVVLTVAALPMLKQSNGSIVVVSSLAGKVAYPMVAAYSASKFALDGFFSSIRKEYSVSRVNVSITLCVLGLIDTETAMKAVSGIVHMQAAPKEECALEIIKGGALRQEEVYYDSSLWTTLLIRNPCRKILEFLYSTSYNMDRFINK
Method: Determination of 11β-HSD1 in Rat, Mouse, and Human Liver Microsomes
The reductive activity of 11β-HSD1 in rat, mouse, and human liver microsomes was measured as previously described ([Ge et al., 2005]). In short, the 11β-HSD1 activity assay tube contained 25 nM substrate, 11DHC (for rats or mice) or cortisone (for humans), spiked with 60,000 dpm of each 3H-steroid. 11β-HSD1 activity was measured using 11-DHC or cortisone as a substrate. A 25 nM steroid substrate is used because the concentration is within the physiological concentration range. Rat (10 μg), mouse (10 μg) and human (4 μg) liver microsomes were incubated with 11-ketosteroids, 0.2 mM NADPH, and various concentrations (10^−10–10^−5 M) of drug candidates at 37 °C for 60–90 min. The inhibitory ability of the chemical relative to the control (DMSO solvent) was measured. […] The reaction was stopped by adding 10 µL of 1 mM glycyrrhetinic acid and 1 ml of ice-cold ether. […] The steroids in chloroform and methanol (90:10, v/v) were chromatographically separated on a thin layer plate, and radioactivity was measured using a scanning radiometer (System AR2000, Bioscan Inc., Washington, DC, United States). The percentage of 11DHC being converted to CORT or cortisone being converted to cortisol can be calculated by dividing the radioactivity count of 11-OH-steroids by the total count. […]

## O=C1/C(=C/c2c(F)cccc2F)CC/C1=C\c1c(F)cccc1F [WZS08, (2E,5E)-2,5-bis(2,6-difluorobenzylidene) Cyclopentanone]
[1]; 100 μM, initial screening, read-out: 11β-HSD1 inhibition, mouse enzyme
  inhibition at 100 µM: 94.5 ± 0.97%
[1]; mouse liver microsomes, 25 nM 11DHC, NADPH
  IC50: 0.244 µM
[2]
  IC50: 0.17 ± 0.0038 µM
[3]; 100 μM, initial screening, read-out: 11β-HSD1 inhibition, human enzyme
  inhibition at 100 µM: 85.4 ± 1.67%
[3]; human liver microsomes, 25 nM cortisone, NADPH
  IC50: 0.621 µM
